From patent publication US9271978B2 (Zenith Epigenetics Corp., priority 2012, dated 2016)

How the values were obtained:
[1] = target: T1, Brd4 bromodomain 1 (BRD4(1)) (Homo sapiens, UniProt O60885); assay: Inhibition of tetra-acetylated histone H4 binding to Brd4 bromodomain 1 (TR-FRET); design: key: Active: Compounds with an IC50 value less than 30 μM were deemed to be active.; Not Active: Compounds with an IC50 value less than 30 μM were deemed to be active; settings: tetra-acetylated histone H4 peptide, active = IC50 <30 μM
T1 construct: Illustrative results with the first bromodomain of Brd4; made in house; host or cells: E. coli BL21 (DE3)
In short: (§1)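 IC50 values come from dose-response curves of the 665 nm to 620 nm TR-FRET signal decrease, measured after 2 h at room temperature. Reactions contained 200 nM E. coli-expressed His-tagged bromodomain, 25-50 nM biotinylated tetra-acetylated H4 peptide, Eu-streptavidin plus XL665 anti-His antibody, with 30 mM HEPES pH 7.4, 320 mM KF and 0.2% DMSO.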

[2] = target: T2, second bromodomain of Brd2 (BRD2(2)) (Homo sapiens, UniProt P25440); assay: Inhibition of tetra-acetylated histone H4 binding to Brd2 bromodomain 2 (TR-FRET); design: key: Active: Compounds with an IC50 value less than 30 μM were deemed to be active.; Not Active: Compounds with an IC50 value less than 30 μM were deemed to be active; settings: tetra-acetylated histone H4 peptide, active = IC50 <30 μM
T2 construct: made in house; host or cells: E. coli BL21 (DE3)
In short: as §1

[3] = system: human AML MV-4-11 (CRL-9591) cells; assay: Inhibition of cell proliferation in MV4-11 cells; type: cell-based; design: key: Active: Compounds with an IC50 value less than 30 μM were deemed to be active.; Not Active: Compounds with an IC50 value less than 30 μM were deemed to be active; settings: human AML MV-4-11 cells, 72 h; active = IC50 <30 μM
In short: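 IC50 values come from blank-corrected proliferation relative to DMSO controls, read as 490 nm absorbance 3–4 h after CellTiter Aqueous One addition. Before that, cells seeded at 5×10^4/well were exposed for 72 h (37° C, 5% CO2) to triplicate two-fold compound dilutions spanning 30–0.2 μM.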

hIL-6 mRNA = assay: Inhibition of hIL-6 mRNA transcription in U937 cells; type: cell-based, human; design: key: Active: Compounds with an IC50 value less than 30 μM were deemed to be active.; Not Active: Compounds with an IC50 value less than 30 μM were deemed to be active; settings: LPS stimulation, active = IC50 <30 μM
In short: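 Readout is one-step real-time PCR of hIL-6 mRNA, normalized to an internal control and given as fold induction versus control. Cells: PMA (60 ng/mL, 3 days)-differentiated U937 macrophages, compound added 1 h before 1 ug/mL LPS, harvested after 3 h at 37° C.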

hMCP-1 mRNA = assay: Inhibition of hMCP-1 mRNA transcription in human peripheral blood mononuclear cells; type: cell-based; design: key: Active: Compounds with an IC50 value less than 30 μM were deemed to be active.; Not Active: Compounds with an IC50 value less than 30 μM were deemed to be active; settings: 3 h
Procedure: In this example, hMCP-1 mRNA in human peripheral blood mononuclear cells was quantitated to measure the transcriptional inhibition of hMCP-1 when treated with a compound of the present disclosure.
Human Peripheral Blood Mononuclear Cells were plated (1.0×10^5 cells per well) in a 96-well plate in 45 μL RPMI-1640 containing 10% FBS and penicillin/streptomycin. The cells were treated with the test compound (45 μL at 2× concentration), and then the cells were incubated at 37° C. for 3 h before the cells were harvested. At time of harvest, cells were transferred to V-bottom plates and centrifuged (800 rpm, 5 min). Spent media was removed and cell lysis solution (70 μL) was added the cells in each well and incubated for 5-10 min at room temperature, to allow for complete cell lysis and detachment. mRNA was then prepared using the “mRNA Catcher PLUS plate” (Invitrogen), according to the protocol supplied. After the last wash, as much wash buffer as possible was aspirated without allowing the wells to dry. Elution buffer (E3, 70 μL) was then added to each well. mRNA was then eluted by incubating the mRNA Catcher PLUS plate with Elution Buffer for 5 min at 68° C. and then immediately placing the plate on ice.
The eluted mRNA isolated was then used in a one-step quantitative real-time PCR reaction, using components of the Ultra Sense Kit together with Applied Biosystems primer-probe mixes. Real-time PCR data was analyzed, normalizing the Ct values for hMCP-1 to an internal control, prior to determining the fold induction of each unknown sample, relative to the control.

MM1.s cells = assay: In vivo efficacy, multiple myeloma xenograft model using MM1.s cells; design: species or system mouse; settings: MM1.s multiple myeloma xenograft in mice, oral 25 to 90 mg/kg b.i.d, tumor growth inhibition
Procedure: MM1.s cells (ATCC) were grown under standard cell culture conditions and SCID-Beige strain of female mice age 6-7 weeks were injected with 10×10^6 cells/animal in 100 μl PBS+100 μL Matrigel in the lower left abdominal flank. By approximately day 21 after MM1.s cells injection, mice were randomized based on tumor volume (L×W×H)/2) of average ^˜120 mm^3. Mice were dosed orally with compound at 25 to 90 mg/kg b.i.d in EA006 formulation at 10 mL/kg body weight dose volume. Tumor measurements were taken with electronic micro calipers and body weights measured on alternate days beginning from dosing period. The average tumor volumes, percent Tumor Growth Inhibition (TGI) and % change in body weights were compared relative to Vehicle control animals. The means, statistical analysis and the comparison between groups were calculated using Student's t-test in Excel.

T2 sequence (P25440 344-453 limits assumed): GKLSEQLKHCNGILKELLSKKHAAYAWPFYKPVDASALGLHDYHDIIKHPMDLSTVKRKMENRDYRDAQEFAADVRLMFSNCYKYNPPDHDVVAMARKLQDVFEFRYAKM

Cc1noc(C)c1-c1ccc(=O)n(Cc2ccccc2F)c1 [Example 27, 5-(3,5-Dimethylisoxazol-4-yl)-1-(2-fluorobenzyl)pyridin-2(1H)-one]
Active: FRET activity (IC50 <30 μM) BRD4(1) [1] | FRET activity (IC50 <30 μM) BRD2(2) [2] | Cell Proliferation activity (IC50 <30 μM) [3] | IL-6 activity (IC50 <30 μM) (hIL-6 mRNA) | MCP-1 activity (IC50 < 30 μM) (hMCP-1 mRNA)

Cc1noc(C)c1-c1cc(N)c(=O)n(Cc2ccc(Cl)cc2)c1 [Example 152, 3-Amino-1-(4-chlorobenzyl)-5-(3,5-dimethylisoxazol-4-yl)pyridin-2(1H)-one]
Active: FRET activity (IC50 <30 μM) BRD4(1) [1] | In vivo activity (MM1.s cells)
